Experimental data taken from PMC4157028, “HPTLC Analysis, Antioxidant and Antigout Activity of Indian Plants” (Iranian Journal of Pharmaceutical Research : IJPR, 2014).
Converted amounts (≈) assume the structure as drawn.

Molecular target: T1, cow milk xanthine oxidase
T1 construct: gene XDH; commercial enzyme from Himedia Laboratories; abstract says cow milk, reagent list says source: microorganisms
Test: spectrophotometric uric acid formation at […] nm
Format: biochemical
Settings: xanthine substrate (150 mM stock as printed, 2 mL added), phosphate buffer pH 7.5, 25 °C, 15 min preincubation, 30 min reaction

IC50: 6.75 µg/mL (≈ 49.6 µM)
SMILES: O=c1[nH]cnc2[nH]ncc12 [Allopurinol]
